# Literature values in patent US9345804B2, “S-nitrosothiol-generating skin dressings” (Insense Limited, priority 2007, dated 2016).
# Columns and labels:
# [1] = at 25° C.
# [2] = under normal conditions
Compound,pKa [1],time to almost complete decomposition [2]
O=NO [nitrite],3.4,–
nitrosoglycerol,–,hours/days
